From patent US7754946B2, “Stem-regulated, plant defense promoter and uses thereof in tissue-specific expression in monocots” (The Texas A&M University System, priority 2003, dated 2010)

Tested on: JAS
Experiment: Microarray of JAS cDNA clones after spraying sugarcane plants with defense-inducing agents
Assay type: in vivo
Conditions: treated v. untreated plant
Description: The 251 cDNA clones used for microarray analysis in Example 1 were further used to assess the effects of defense-inducing agents on the expression of the stem-specific genes.
Total RNA was extracted from wild type sugarcane plants (3 months-old) that were sprayed with the defense-inducing agents jasmonic acid (JA) (25·mu·M in 0.05.percent.Tween 20), methyl-jasmonate (MeJA) (200·mu·M in 0.1.percent.ethanol and 0.05.percent.Tween 20) or salicylic acid (SA) (5 mM in 0.05.percent.Tween 20) for two time periods, 24 and 48 hours. The microarray including 251 cDNAs was probed with fluorescently labeled cDNAs synthesized from 1·mu·g of total amplified RNA. One cDNA probe (e.g. RNA from plant treated with a defense-inducing agent) is labeled with one dye (Cy5), and the second (e.g. RNA from untreated control plant) with another dye (Cy3)
Microarray data was analyzed using GeneSpring analysis software. Data were normalized using an endogenous constitutive gene. The normalized ratio of Cy5 v.

## CC/C=C\C[C@H]1C(=O)CC[C@@H]1CC(=O)O [JA, jasmonic acid]
Clone 2I1, JA 25 μM spray, 24 hours
  Cy5/Cy3 Ratios (Upregulation) for JAS: 0.59
Clone 2I1, JA 25 μM spray, 48 hours
  Cy5/Cy3 Ratios (Upregulation) for JAS: 2.10
Clone 4Q3, JA 25 μM spray, 24 hours
  Cy5/Cy3 Ratios (Upregulation) for JAS: 0.41
Clone 4Q3, JA 25 μM spray, 48 hours
  Cy5/Cy3 Ratios (Upregulation) for JAS: 2.12
Clone 5P22, JA 25 μM spray, 24 hours
  Cy5/Cy3 Ratios (Upregulation) for JAS: 0.41
Clone 5P22, JA 25 μM spray, 48 hours
  Cy5/Cy3 Ratios (Upregulation) for JAS: 2.10
Clone 6H10, JA 25 μM spray, 24 hours
  Cy5/Cy3 Ratios (Upregulation) for JAS: 0.42
Clone 6H10, JA 25 μM spray, 48 hours
  Cy5/Cy3 Ratios (Upregulation) for JAS: 2.19
Clone 10P7, JA 25 μM spray, 24 hours
  Cy5/Cy3 Ratios (Upregulation) for JAS: 0.59
Clone 10P7, JA 25 μM spray, 48 hours
  Cy5/Cy3 Ratios (Upregulation) for JAS: 2.10
Clone 12F18, JA 25 μM spray, 24 hours
  Cy5/Cy3 Ratios (Upregulation) for JAS: 0.51
Clone 12F18, JA 25 μM spray, 48 hours
  Cy5/Cy3 Ratios (Upregulation) for JAS: 1.64
Clone 13F16, JA 25 μM spray, 24 hours
  Cy5/Cy3 Ratios (Upregulation) for JAS: 0.51
Clone 13F16, JA 25 μM spray, 48 hours
  Cy5/Cy3 Ratios (Upregulation) for JAS: 2.21
Clone 17C11, JA 25 μM spray, 24 hours
  Cy5/Cy3 Ratios (Upregulation) for JAS: 0.35
Clone 17C11, JA 25 μM spray, 48 hours
  Cy5/Cy3 Ratios (Upregulation) for JAS: 2.12
Clone 18H16, JA 25 μM spray, 24 hours
  Cy5/Cy3 Ratios (Upregulation) for JAS: 1.90
Clone 18H16, JA 25 μM spray, 48 hours
  Cy5/Cy3 Ratios (Upregulation) for JAS: 1.40
Clone 20F18, JA 25 μM spray, 24 hours
  Cy5/Cy3 Ratios (Upregulation) for JAS: 0.34
Clone 20F18, JA 25 μM spray, 48 hours
  Cy5/Cy3 Ratios (Upregulation) for JAS: 2.00
Clone 20G16, JA 25 μM spray, 24 hours
  Cy5/Cy3 Ratios (Upregulation) for JAS: 0.85
Clone 20G16, JA 25 μM spray, 48 hours
  Cy5/Cy3 Ratios (Upregulation) for JAS: 1.30
Clone 24G4, JA 25 μM spray, 24 hours
  Cy5/Cy3 Ratios (Upregulation) for JAS: 0.41
Clone 24G4, JA 25 μM spray, 48 hours
  Cy5/Cy3 Ratios (Upregulation) for JAS: 1.14
Clone 25K14, JA 25 μM spray, 24 hours
  Cy5/Cy3 Ratios (Upregulation) for JAS: 1.73
Clone 25K14, JA 25 μM spray, 48 hours
  Cy5/Cy3 Ratios (Upregulation) for JAS: 1.65

## CC/C=C\CC1C(=O)CCC1CC(=O)OC (stereo not shown) [MeJA, methyl-jasmonate]
Clone 2I1, MeJA 200 μM spray, 24 hours
  Cy5/Cy3 Ratios (Upregulation) for JAS: 0.27
Clone 2I1, MeJA 200 μM spray, 48 hours
  Cy5/Cy3 Ratios (Upregulation) for JAS: 0.22
Clone 4Q3, MeJA 200 μM spray, 24 hours
  Cy5/Cy3 Ratios (Upregulation) for JAS: 0.15
Clone 4Q3, MeJA 200 μM spray, 48 hours
  Cy5/Cy3 Ratios (Upregulation) for JAS: 0.18
Clone 5P22, MeJA 200 μM spray, 24 hours
  Cy5/Cy3 Ratios (Upregulation) for JAS: 0.16
Clone 5P22, MeJA 200 μM spray, 48 hours
  Cy5/Cy3 Ratios (Upregulation) for JAS: 0.17
Clone 6H10, MeJA 200 μM spray, 24 hours
  Cy5/Cy3 Ratios (Upregulation) for JAS: 0.15
Clone 6H10, MeJA 200 μM spray, 48 hours
  Cy5/Cy3 Ratios (Upregulation) for JAS: 0.19
Clone 10P7, MeJA 200 μM spray, 24 hours
  Cy5/Cy3 Ratios (Upregulation) for JAS: 0.13
Clone 10P7, MeJA 200 μM spray, 48 hours
  Cy5/Cy3 Ratios (Upregulation) for JAS: 0.15
Clone 12F18, MeJA 200 μM spray, 24 hours
  Cy5/Cy3 Ratios (Upregulation) for JAS: 0.20
Clone 12F18, MeJA 200 μM spray, 48 hours
  Cy5/Cy3 Ratios (Upregulation) for JAS: 0.21
Clone 13F16, MeJA 200 μM spray, 24 hours
  Cy5/Cy3 Ratios (Upregulation) for JAS: 0.25
Clone 13F16, MeJA 200 μM spray, 48 hours
  Cy5/Cy3 Ratios (Upregulation) for JAS: 0.34
Clone 17C11, MeJA 200 μM spray, 24 hours
  Cy5/Cy3 Ratios (Upregulation) for JAS: 0.17
Clone 17C11, MeJA 200 μM spray, 48 hours
  Cy5/Cy3 Ratios (Upregulation) for JAS: 0.17
Clone 18H16, MeJA 200 μM spray, 24 hours
  Cy5/Cy3 Ratios (Upregulation) for JAS: 3.00
Clone 18H16, MeJA 200 μM spray, 48 hours
  Cy5/Cy3 Ratios (Upregulation) for JAS: 0.79
Clone 20F18, MeJA 200 μM spray, 24 hours
  Cy5/Cy3 Ratios (Upregulation) for JAS: 0.16
Clone 20F18, MeJA 200 μM spray, 48 hours
  Cy5/Cy3 Ratios (Upregulation) for JAS: 0.18
Clone 20G16, MeJA 200 μM spray, 24 hours
  Cy5/Cy3 Ratios (Upregulation) for JAS: 0.50
Clone 20G16, MeJA 200 μM spray, 48 hours
  Cy5/Cy3 Ratios (Upregulation) for JAS: 0.49
Clone 24G4, MeJA 200 μM spray, 24 hours
  Cy5/Cy3 Ratios (Upregulation) for JAS: 0.37
Clone 24G4, MeJA 200 μM spray, 48 hours
  Cy5/Cy3 Ratios (Upregulation) for JAS: 0.41
Clone 25K14, MeJA 200 μM spray, 24 hours
  Cy5/Cy3 Ratios (Upregulation) for JAS: 3.07
Clone 25K14, MeJA 200 μM spray, 48 hours
  Cy5/Cy3 Ratios (Upregulation) for JAS: 1.02

## O=C(O)c1ccccc1O [SA, salicylic acid]
Clone 2I1, SA 5 mM spray, 48 hours
  Cy5/Cy3 Ratios (Upregulation) for JAS: 16.92
Clone 4Q3, SA 5 mM spray, 48 hours
  Cy5/Cy3 Ratios (Upregulation) for JAS: 15.26
Clone 5P22, SA 5 mM spray, 48 hours
  Cy5/Cy3 Ratios (Upregulation) for JAS: 18.08
Clone 6H10, SA 5 mM spray, 48 hours
  Cy5/Cy3 Ratios (Upregulation) for JAS: 19.22
Clone 10P7, SA 5 mM spray, 48 hours
  Cy5/Cy3 Ratios (Upregulation) for JAS: 20.96
Clone 12F18, SA 5 mM spray, 48 hours
  Cy5/Cy3 Ratios (Upregulation) for JAS: 17.54
Clone 17C11, SA 5 mM spray, 48 hours
  Cy5/Cy3 Ratios (Upregulation) for JAS: 18.83
Clone 18H16, SA 5 mM spray, 48 hours
  Cy5/Cy3 Ratios (Upregulation) for JAS: 0.70
Clone 20F18, SA 5 mM spray, 48 hours
  Cy5/Cy3 Ratios (Upregulation) for JAS: 19.54
Clone 20G16, SA 5 mM spray, 48 hours
  Cy5/Cy3 Ratios (Upregulation) for JAS: 13.81
Clone 24G4, SA 5 mM spray, 48 hours
  Cy5/Cy3 Ratios (Upregulation) for JAS: 7.73
Clone 25K14, SA 5 mM spray, 48 hours
  Cy5/Cy3 Ratios (Upregulation) for JAS: 0.70
